Measured values reported in PubChem BioAssay AID2060622 (Molecular Pharmacology Branch, DTP, NCI, 2025).
pIC50: −log10 of the molar value.

Tested on: 242566-281-R-J2-PDC complex spheroid viability
Assay: Anticancer human tumor 242566-281-R-J2-PDC patient-derived pancreatic carcinoma cell line growth inhibition [CLK]
Settings: for pIC50: curve of first compound; for viability, T/C: stronger effect = lower value
Procedure, shortened: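 Patient-derived tumor cells grown as complex spheroids with HUVEC endothelial cells and mesenchymal stem cells, treated with drug combinations. Concentrations descend in half-log steps from near clinical Cmax, or from 10 microM if Cmax unknown.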

[1] = second compound 0.0316 µM, first compound 0.0316 µM
[2] = second compound 0.0316 µM, first compound 0.1 µM
[3] = second compound 0.1 µM, first compound 0.0316 µM
[4] = second compound 0.1 µM, first compound 0.1 µM
[5] = second compound 0.316 µM, first compound 0.0316 µM
[6] = second compound 0.316 µM, first compound 0.1 µM
[7] = second compound 1 µM, first compound 0.0316 µM
[8] = second compound 1 µM, first compound 0.1 µM
[9] = second compound 3.16 µM, first compound 0.0316 µM
[10] = second compound 3.16 µM, first compound 0.1 µM
[11] = second compound 10 µM, first compound 0.0316 µM
[12] = second compound 10 µM, first compound 0.1 µM
[13] = second compound 0.0316 µM, first compound 0.316 µM
[14] = second compound 0.0316 µM, first compound 1 µM
[15] = second compound 0.0316 µM, first compound 3.16 µM
[16] = second compound 0.0316 µM, first compound 10 µM
[17] = second compound 0.1 µM, first compound 0.316 µM
[18] = second compound 0.1 µM, first compound 1 µM
[19] = second compound 0.1 µM, first compound 3.16 µM
[20] = second compound 0.1 µM, first compound 10 µM
[21] = second compound 0.316 µM, first compound 0.316 µM
[22] = second compound 0.316 µM, first compound 1 µM
[23] = second compound 0.316 µM, first compound 3.16 µM
[24] = second compound 0.316 µM, first compound 10 µM
[25] = second compound 1 µM, first compound 0.316 µM
[26] = second compound 1 µM, first compound 1 µM
[27] = second compound 1 µM, first compound 3.16 µM
[28] = second compound 1 µM, first compound 10 µM
[29] = second compound 3.16 µM, first compound 0.316 µM
[30] = second compound 3.16 µM, first compound 1 µM
[31] = second compound 3.16 µM, first compound 3.16 µM
[32] = second compound 3.16 µM, first compound 10 µM
[33] = second compound 10 µM, first compound 0.316 µM
[34] = second compound 10 µM, first compound 1 µM
[35] = second compound 10 µM, first compound 3.16 µM
[36] = second compound 10 µM, first compound 10 µM
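Note: spheroids exposed to compounds for 7 days before readout.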
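Throughout, for viability, T/C: 100% = DMSO vehicle control wells.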

Cn1ncnc1[C@H]1c2n[nH]c(=O)c3cc(F)cc(c23)N[C@@H]1c1ccc(F)cc1 + CNC(=O)c1ccc(Nc2nc(OC3CCCC3)c3c(-c4ccc5nc(C)oc5c4)c[nH]c3n2)c(OC)c1
pIC50 (second compound 0.0316 µM): < 7.00
pIC50 (second compound 0.1 µM): < 7.00
pIC50 (second compound 0.316 µM): < 7.00
pIC50 (second compound 1 µM): < 7.00
pIC50 (second compound 3.16 µM): 7.51
pIC50 (second compound 10 µM): 8.69
viability, T/C (second compound 0.0316 µM, first compound 0.000316 µM): 126%
viability, T/C (second compound 0.0316 µM, first compound 0.001 µM): 105%
viability, T/C (second compound 0.0316 µM, first compound 0.00316 µM): 104%
viability, T/C (second compound 0.0316 µM, first compound 0.01 µM): 127%
viability, T/C [1]: 91.8%
viability, T/C [2]: 98.8%
viability, T/C (second compound 0.1 µM, first compound 0.000316 µM): 100%
viability, T/C (second compound 0.1 µM, first compound 0.001 µM): 123%
viability, T/C (second compound 0.1 µM, first compound 0.00316 µM): 84.1%
viability, T/C (second compound 0.1 µM, first compound 0.01 µM): 92.3%
viability, T/C [3]: 98.5%
viability, T/C [4]: 87.8%
viability, T/C (second compound 0.316 µM, first compound 0.000316 µM): 104%
viability, T/C (second compound 0.316 µM, first compound 0.001 µM): 86.3%
viability, T/C (second compound 0.316 µM, first compound 0.00316 µM): 85.1%
viability, T/C (second compound 0.316 µM, first compound 0.01 µM): 89.9%
viability, T/C [5]: 79.9%
viability, T/C [6]: 76.5%
viability, T/C (second compound 1 µM, first compound 0.000316 µM): 70.9%
viability, T/C (second compound 1 µM, first compound 0.001 µM): 67.2%
viability, T/C (second compound 1 µM, first compound 0.00316 µM): 62.5%
viability, T/C (second compound 1 µM, first compound 0.01 µM): 64.8%
viability, T/C [7]: 56.1%
viability, T/C [8]: 52.4%
viability, T/C (second compound 3.16 µM, first compound 0.000316 µM): 55.5%
viability, T/C (second compound 3.16 µM, first compound 0.001 µM): 52%
viability, T/C (second compound 3.16 µM, first compound 0.00316 µM): 49.6%
viability, T/C (second compound 3.16 µM, first compound 0.01 µM): 47.6%
viability, T/C [9]: 56.2%
viability, T/C [10]: 47%
viability, T/C (second compound 10 µM, first compound 0.000316 µM): 50.2%
viability, T/C (second compound 10 µM, first compound 0.001 µM): 53.8%
viability, T/C (second compound 10 µM, first compound 0.00316 µM): 45.2%
viability, T/C (second compound 10 µM, first compound 0.01 µM): 49.8%
viability, T/C [11]: 50.3%
viability, T/C [12]: 49.1%

Nc1ccn(C2OC(CO)C(O)C2(F)F)c(=O)n1 (stereo unspecified) + CNC(=O)c1ccc(Nc2nc(OC3CCCC3)c3c(-c4ccc5nc(C)oc5c4)c[nH]c3n2)c(OC)c1
pIC50 (second compound 0.0316 µM): 7.07
pIC50 (second compound 0.1 µM): 6.94
pIC50 (second compound 0.316 µM): 7.11
pIC50 (second compound 1 µM): 7.25
pIC50 (second compound 3.16 µM): 7.49
pIC50 (second compound 10 µM): > 7.50
viability, T/C [1]: 91.5%
viability, T/C [2]: 42.9%
viability, T/C [13]: 21.2%
viability, T/C [14]: 12.3%
viability, T/C [15]: 9.35%
viability, T/C [16]: 9.34%
viability, T/C [3]: 91.1%
viability, T/C [4]: 53.3%
viability, T/C [17]: 26.7%
viability, T/C [18]: 15.5%
viability, T/C [19]: 12.8%
viability, T/C [20]: 10%
viability, T/C [5]: 78%
viability, T/C [6]: 40.5%
viability, T/C [21]: 25.7%
viability, T/C [22]: 14.8%
viability, T/C [23]: 12.8%
viability, T/C [24]: 8.22%
viability, T/C [7]: 62.8%
viability, T/C [8]: 37.8%
viability, T/C [25]: 19.3%
viability, T/C [26]: 11.9%
viability, T/C [27]: 9.22%
viability, T/C [28]: 6.78%
viability, T/C [9]: 50.1%
viability, T/C [10]: 36.2%
viability, T/C [29]: 16.3%
viability, T/C [30]: 10.7%
viability, T/C [31]: 7.99%
viability, T/C [32]: 6.76%
viability, T/C [11]: 45.8%
viability, T/C [12]: 34.7%
viability, T/C [33]: 19.7%
viability, T/C [34]: 9.76%
viability, T/C [35]: 8.5%
viability, T/C [36]: 7.44%

O=c1[nH]cc(F)c(=O)[nH]1 + CNC(=O)c1ccc(Nc2nc(OC3CCCC3)c3c(-c4ccc5nc(C)oc5c4)c[nH]c3n2)c(OC)c1
pIC50 (second compound 0.0316 µM): < 5.00
pIC50 (second compound 0.1 µM): < 5.00
pIC50 (second compound 0.316 µM): 5.29
pIC50 (second compound 1 µM): 5.71
pIC50 (second compound 3.16 µM): 7.11
pIC50 (second compound 10 µM): > 7.50
viability, T/C [1]: 108%
viability, T/C [2]: 116%
viability, T/C [13]: 83.9%
viability, T/C [14]: 91.4%
viability, T/C [15]: 66.5%
viability, T/C [16]: 53.5%
viability, T/C [3]: 96%
viability, T/C [4]: 96.5%
viability, T/C [17]: 86.4%
viability, T/C [18]: 71.7%
viability, T/C [19]: 63.9%
viability, T/C [20]: 52.2%
viability, T/C [5]: 86.1%
viability, T/C [6]: 66.9%
viability, T/C [21]: 67.6%
viability, T/C [22]: 74%
viability, T/C [23]: 53.9%
viability, T/C [24]: 41.3%
viability, T/C [7]: 67%
viability, T/C [8]: 61.2%
viability, T/C [25]: 62.6%
viability, T/C [26]: 56.9%
viability, T/C [27]: 45%
viability, T/C [28]: 25.5%
viability, T/C [9]: 51.9%
viability, T/C [10]: 50.7%
viability, T/C [29]: 44.7%
viability, T/C [30]: 46.2%
viability, T/C [31]: 38.2%
viability, T/C [32]: 22.5%
viability, T/C [11]: 48%
viability, T/C [12]: 50.2%
viability, T/C [33]: 47.3%
viability, T/C [34]: 44.2%
viability, T/C [35]: 34.2%
viability, T/C [36]: 23.2%
